Earlier results in patent publication US9937184B2 (THEOCORP HOLDING COMPANY, LLC, priority 2013, dated 2018).

Columns and labels:
[1] = system: UMR 106-01 rat obsteoblast-like cells; settings: prior art results (Kamagata-Kiyoura 1999)
[2] = in vivo

| plasma half-life (t1/2) in the bloodstream [2] | SMILES | proliferation of osteoblast-like cells (UMR 106-01) [1] |
| --- | --- | --- |
|  | Cn1c(=O)c2c(ncn2C)n(C)c1=O [caffeine, 1,3,7-trimethylxanthine] | inhibits cell proliferation |
| six | Cn1cnc2c1c(=O)[nH]c(=O)n2C [Theobromine, 3,7-dimethyl-2,3,6,7-tetrahydro-1H-purine-2,6-dione] |  |
